Consider 3 compounds from US12162869B2, “Type II crystalline topramezone sodium salt hydrate, preparation method therefor and use thereof” (Rotam Agrochem International Company Limited, priority 2022, dated 2024).

The conditions of series [1]: aqueous preparation; reported in US 2010075853 A; cited from earlier work.
Series [2] in a line: Heat storage experiment of the preparation product. Format: physicochemical. The procedure:
In the preparation of solid preparations containing topramezone, the crystalline form I of the topramezone sodium salt can be better granulated compared with the anhydrous substance of the topramezone sodium salt. […] However, the preparation of type I topramezone sodium salt hydrate requires standing in water or a water-containing mixed solvent at −10° C.-15° C. for 10-48 h to complete the crystallization.

The nature of series [3]: Product performance comparison: storage of preparation samples at 54° C. for 2 weeks. Format: physicochemical. Conditions: stored at 54° C. for 2 weeks; characters before and after storage compared. The procedure:
The preparation samples 1, 2, 3, 4, 5, 6, 7, 8, 9, 10, 11 and 12 prepared in Application examples 1-4 are stored at 54° C. for 2 weeks, respectively. The character changes of each sample before and after storage are compared.

For `Cc1c(C(=O)c2cnn(C)c2[O-])ccc(S(C)(=O)=O)c1C1=NOCC1.[Na+]` [topramezone sodium salt], the “Activity compared with topramezone acid” value in series [1] is on record as “equivalent to or even higher than that of topramezone acid”. Regarding `Cc1c(C(=O)c2cnn(C)c2[O-])ccc(S(C)(=O)=O)c1C1=NOCC1.Cc1c(C(=O)c2cnn(C)c2[O-])ccc(S(C)(=O)=O)c1C1=NOCC1.O.O.O.O.O.[Na+].[Na+]` [type I topramezone sodium salt hydrate, 2.5 water topramezone sodium salt hydrate], in series [2], the “Stability of the preparation in heat storage, compared with the preparation based on the anhydrous substance” value is given as “more stable”. On to “type II crystalline topramezone sodium salt hydrate”, for which the Character changes entry in series [3] was “stable after storage”.
